Results: US5763404A, “Methods for using LHRH antagonists with low histamine release” (priority 1995, dated 1998)
Starred links: 1 amine or outer side, 2 acyl side, 3 side chain; linkers in the order of their positions; H or OH if unused. Non-standard residues stand in square brackets, D forms with d. Residues, ends and D or L forms follow the SMILES beside them. *: point of attachment. X9 = CN=C(NCCC[C@H](N[*:1])C(=O)[*:2])N(C)C; dPhe(4-Cl) = N[C@H](Cc1ccc(Cl)cc1)C(=O)O; d2Nal = N[C@H](Cc1ccc2ccccc2c1)C(=O)O; dLys(iPr) = CC(C)NCCCC[C@@H](N)C(=O)O; Lys(iPr) = CC(C)NCCCC[C@H](N)C(=O)O; Orn(iPr) = CC(C)NCCC[C@H](N)C(=O)O; 3Pal = N[C@@H](Cc1cccnc1)C(=O)O; d3Pal = N[C@H](Cc1cccnc1)C(=O)O; Nicotinoyl = O=C(c1cccnc1)*; Orn = NCCC[C@H](N)C(=O)O

tested on: anaesthesized rats; assay: wheal test, intradermal injection; assay type: in vivo, rat; conditions: Table I; 10 ug peptide intradermally
Method: The antiovulatory activity, AOA, in rats was determined as described by Humphries et al. (12). Antiovulation assays were performed by counting, on estrus, the number of ova shed by 4-day cycling rats after a single sc injection of the LH-RH analogue in corn oil was administered between 12 and 12:30 p.m. on […]. The control rats received 0.3 mL of the vehicle. The wheal test was performed by intradermally injecting 10 ug of peptide in 100 ul of saline into anaesthesized rats, measuring the ideally circular wheal response and calculating the area. The in vitro histamine release test was done as described by Karten et al. (4). A suspension of rat mast cells was added to increasing concentrations of peptide and the mixture was incubated for a few minutes followed by centrifugation to collect the histamine in the supernatant. A PIPES (piperazine-N,N'-bis[2-ethanesulfonic acid]) medium buffered at pH 7.4 containing NaCl 119 mM, KCl 5 mM, PIPES 25 mM, NaOH 40 mM, glucose 5.6 mM, CaCl2 1 mM, and 0.1% bovine serum albumin was used. This was designated as PIPES AC. Peptides were dissolved in double distilled H2 O at a concentration of 2 mg/ml and stored at -20° C. They were thawed just prior to testing, diluted in PIPES AC and prewarmed for five minutes at 37° C. Peptides studied were stable to heating at 56° C. for two hours, and to freezing and thawing.

Compared with `CC(=O)N[C@H](Cc1ccc2ccccc2c1)C(=O)N[C@H](Cc1ccc(Cl)cc1)C(=O)N[C@H](Cc1cccnc1)C(=O)N[C@@H](CO)C(=O)N[C@@H](CCCCNC(=O)c1cccnc1)C(=O)N[C@H](Cc1c[nH]cn1)C(=O)N[C@@H](CC(C)C)C(=O)N[C@@H](CCCNC(=N)N)C(=O)N1CCC[C@H]1C(=O)N[C@H](C)C(N)=O` [compound 24544] (Ac-[d2Nal][dPhe(4-Cl)][d3Pal]SK(Nicotinoyl)[dH]LRP[dA]-NH2), `CC(=O)N[C@H](Cc1ccc2ccccc2c1)C(=O)N[C@H](Cc1ccc(Cl)cc1)C(=O)N[C@H](Cc1cccnc1)C(=O)N[C@@H](CO)C(=O)N[C@@H](Cc1c[nH]cn1)C(=O)N[C@H](CCCCNC(=O)c1cccnc1)C(=O)N[C@@H](CC(C)C)C(=O)N[C@@H](CCCNC(=N)N)C(=O)N1CCC[C@H]1C(=O)N[C@H](C)C(N)=O` [compound 24545] (Ac-[d2Nal][dPhe(4-Cl)][d3Pal]SH[dK](Nicotinoyl)LRP[dA]-NH2) is lower in Wheal: 146.7 ± 3.6 mm^2 /10 for the first, 139.7 ± 0 mm^2 /10 for the second.

Going from `CC(=O)N[C@H](Cc1ccc2ccccc2c1)C(=O)N[C@H](Cc1ccc(Cl)cc1)C(=O)N[C@H](Cc1cccnc1)C(=O)N[C@@H](CO)C(=O)N[C@@H](Cc1cccnc1)C(=O)N[C@H](CCCCNC(=O)c1cccnc1)C(=O)N[C@@H](CC(C)C)C(=O)N[C@@H](CCCNC(=N)N)C(=O)N1CCC[C@H]1C(=O)N[C@H](C)C(N)=O` [compound 24593] (Ac-[d2Nal][dPhe(4-Cl)][d3Pal]S[3Pal][dK](Nicotinoyl)LRP[dA]-NH2) to `CC(=O)N[C@H](Cc1ccc2ccccc2c1)C(=O)N[C@H](Cc1ccc(Cl)cc1)C(=O)N[C@H](Cc1cccnc1)C(=O)N[C@@H](CO)C(=O)N[C@@H](CCCNC(=N)N)C(=O)N[C@H](Cc1cccnc1)C(=O)N[C@@H](CC(C)C)C(=O)N[C@@H](CCCCNC(=O)c1cccnc1)C(=O)N1CCC[C@H]1C(=O)N[C@H](C)C(N)=O` [compound 24771] (Ac-[d2Nal][dPhe(4-Cl)][d3Pal]SR[d3Pal]LK(Nicotinoyl)P[dA]-NH2), the Wheal falls from 146.4 ± 3.6 mm^2 /10 to 99.0 ± 10.3 mm^2 /10.

Compared with `CC(=O)N[C@H](Cc1ccc2ccccc2c1)C(=O)N[C@H](Cc1ccc(Cl)cc1)C(=O)N[C@H](Cc1cccnc1)C(=O)N[C@@H](CO)C(=O)N[C@@H](CCCCNC(=O)c1cccnc1)C(=O)N[C@H](CCCCNC(=O)c1cccnc1)C(=O)N[C@@H](CC(C)C)C(=O)N[C@@H](CCCNC(=N)N)C(=O)N1CCC[C@H]1C(=O)N[C@H](C)C(N)=O` [compound 24594] (Ac-[d2Nal][dPhe(4-Cl)][d3Pal]SK(Nicotinoyl)[dK](Nicotinoyl)LRP[dA]-NH2), `CC(=O)N[C@H](Cc1ccc2ccccc2c1)C(=O)N[C@H](Cc1ccc(Cl)cc1)C(=O)N[C@H](Cc1cccnc1)C(=O)N[C@@H](CO)C(=O)N[C@@H](CCCCNC(=O)c1cccnc1)C(=O)N[C@H](CCCCNC(=O)c1cccnc1)C(=O)N[C@@H](CC(C)C)C(=O)N[C@@H](CCCNC(C)C)C(=O)N1CCC[C@H]1C(=O)N[C@H](C)C(N)=O` [compound 24933] (Ac-[d2Nal][dPhe(4-Cl)][d3Pal]SK(Nicotinoyl)[dK](Nicotinoyl)L[Orn(iPr)]P[dA]-NH2) is higher in Wheal: 126.2 ± 8.8 mm^2 /10 for the first, 136.0 mm^2 /10 for the second.

`CC(=O)N[C@H](Cc1ccc2ccccc2c1)C(=O)N[C@H](Cc1ccc(Cl)cc1)C(=O)N[C@H](Cc1cccnc1)C(=O)N[C@@H](CO)C(=O)N[C@@H](CCCCNC(=O)c1cccnc1)C(=O)N[C@H](CCCCNC(=O)c1cccnc1)C(=O)N[C@@H](CC(C)C)C(=O)N[C@@H](CCCCNC(=O)c1cccnc1)C(=O)N1CCC[C@H]1C(=O)N[C@H](C)C(N)=O` [compound 24596] (Ac-[d2Nal][dPhe(4-Cl)][d3Pal]SK(Nicotinoyl)[dK](Nicotinoyl)LK(Nicotinoyl)P[dA]-NH2) and `CC(=O)N[C@H](Cc1ccc2ccccc2c1)C(=O)N[C@H](Cc1ccc(Cl)cc1)C(=O)N[C@H](Cc1cccnc1)C(=O)N[C@@H](CO)C(=O)N[C@@H](CCCCNC(C)C)C(=O)N[C@H](CCCCNC(=O)c1cccnc1)C(=O)N[C@@H](CC(C)C)C(=O)N[C@@H](CCCCNC(=O)c1cccnc1)C(=O)N1CCC[C@H]1C(=O)N[C@H](C)C(N)=O` [compound 24746] (Ac-[d2Nal][dPhe(4-Cl)][d3Pal]S[Lys(iPr)][dK](Nicotinoyl)LK(Nicotinoyl)P[dA]-NH2) are within error of each other in Wheal: 122.8 ± 5.7 mm^2 /10 for the first, 132.8 ± 5.9 mm^2 /10 for the second.

Compared with `CC(=O)N[C@H](Cc1ccc2ccccc2c1)C(=O)N[C@H](Cc1ccc(Cl)cc1)C(=O)N[C@H](CCCCNC(=O)c1cccnc1)C(=O)N[C@@H](CO)C(=O)N[C@@H](Cc1ccc(O)cc1)C(=O)N[C@H](CCCCNC(=O)c1cccnc1)C(=O)N[C@@H](CC(C)C)C(=O)N[C@@H](CCCNC(=N)N)C(=O)N1CCC[C@H]1C(=O)N[C@H](C)C(N)=O` [compound 24597] (Ac-[d2Nal][dPhe(4-Cl)][dK](Nicotinoyl)SY[dK](Nicotinoyl)LRP[dA]-NH2), `CC(=O)N[C@H](Cc1ccc2ccccc2c1)C(=O)N[C@H](Cc1ccc(Cl)cc1)C(=O)N[C@H](Cc1cccnc1)C(=O)N[C@@H](CO)C(=O)N[C@@H](Cc1ccc(O)cc1)C(=O)N[C@H](CCCNC(=N)N)C(=O)N[C@@H](CC(C)C)C(=O)N[C@@H](CCCCNC(=O)c1cccnc1)C(=O)N1CCC[C@H]1C(=O)N[C@H](C)C(N)=O` [compound 24749] (Ac-[d2Nal][dPhe(4-Cl)][d3Pal]SY[dR]LK(Nicotinoyl)P[dA]-NH2) is higher in Wheal: 101.0 mm^2 /10 for the first, 136.3 mm^2 /10 for the second.

Going from `CC(=O)N[C@H](Cc1ccc2ccccc2c1)C(=O)N[C@H](Cc1ccc(Cl)cc1)C(=O)N[C@H](Cc1cccnc1)C(=O)N[C@@H](CO)C(=O)N[C@@H](Cc1c[nH]cn1)C(=O)N[C@H](CCCCNC(=O)c1cccnc1)C(=O)N[C@@H](CC(C)C)C(=O)N[C@@H](CCCCNC(=O)c1cccnc1)C(=O)N1CCC[C@H]1C(=O)N[C@H](C)C(N)=O` [compound 24745] (Ac-[d2Nal][dPhe(4-Cl)][d3Pal]SH[dK](Nicotinoyl)LK(Nicotinoyl)P[dA]-NH2) to `CC(=O)N[C@H](Cc1ccc2ccccc2c1)C(=O)N[C@H](Cc1ccc(Cl)cc1)C(=O)N[C@H](Cc1cccnc1)C(=O)N[C@@H](CO)C(=O)N[C@@H](CCCCNC(=O)c1cccnc1)C(=O)N[C@@H](CCCCNC(=O)c1cccnc1)C(=O)N[C@@H](CC(C)C)C(=O)N[C@@H](CCCCNC(C)C)C(=O)N1CCC[C@H]1C(=O)N[C@H](C)C(N)=O` [compound 24934] (Ac-[d2Nal][dPhe(4-Cl)][d3Pal]SK(Nicotinoyl)K(Nicotinoyl)L[Lys(iPr)]P[dA]-NH2), the Wheal falls from 136.3 ± 6.8 mm^2 /10 to 123 ± 5.9 mm^2 /10.

Going from `CC(=O)N[C@H](Cc1ccc2ccccc2c1)C(=O)N[C@H](Cc1ccc(Cl)cc1)C(=O)N[C@H](Cc1cccnc1)C(=O)N[C@@H](CO)C(=O)N[C@@H](Cc1ccc(O)cc1)C(=O)N[C@H](CCCCNC(=O)c1cccnc1)C(=O)N[C@@H](CC(C)C)C(=O)N[C@@H](CCCN)C(=O)N1CCC[C@H]1C(=O)N[C@H](C)C(N)=O` [compound 24748] (Ac-[d2Nal][dPhe(4-Cl)][d3Pal]SY[dK](Nicotinoyl)L[Orn]P[dA]-NH2) to `CC(=O)N[C@H](Cc1ccc2ccccc2c1)C(=O)N[C@H](Cc1ccc(Cl)cc1)C(=O)N[C@H](Cc1cccnc1)C(=O)N[C@@H](CO)C(=O)N[C@@H](Cc1ccc(O)cc1)C(=O)N[C@H](CCCCNC(=O)c1cccnc1)C(=O)N[C@@H](CC(C)C)C(=O)N[C@@H](CCCCN)C(=O)N1CCC[C@H]1C(=O)N[C@H](C)C(N)=O` [compound 24825] (Ac-[d2Nal][dPhe(4-Cl)][d3Pal]SY[dK](Nicotinoyl)LKP[dA]-NH2), the Wheal falls from 129.4 mm^2 /10 to 119.5 ± 3.2 mm^2 /10.

Going from `CC(=O)N[C@H](Cc1ccc2ccccc2c1)C(=O)N[C@H](Cc1ccc(Cl)cc1)C(=O)N[C@H](Cc1cccnc1)C(=O)N[C@@H](CO)C(=O)N[C@@H](CCCCNC(=O)c1cccnc1)C(=O)N[C@H](CCCCNC(C)C)C(=O)N[C@@H](CC(C)C)C(=O)N[C@@H](CCCNC(=N)N)C(=O)N1CCC[C@H]1C(=O)N[C@H](C)C(N)=O` [compound 24754] (Ac-[d2Nal][dPhe(4-Cl)][d3Pal]SK(Nicotinoyl)[dLys(iPr)]LRP[dA]-NH2) to `CN=C(NCCC[C@H](NC(=O)[C@H](CO)NC(=O)[C@@H](Cc1cccnc1)NC(=O)[C@@H](Cc1ccc(Cl)cc1)NC(=O)[C@@H](Cc1ccc2ccccc2c1)NC(C)=O)C(=O)N[C@H](CCCCNC(=O)c1cccnc1)C(=O)N[C@@H](CC(C)C)C(=O)N[C@@H](CCCCNC(C)C)C(=O)N1CCC[C@H]1C(=O)N[C@H](C)C(N)=O)N(C)C` [compound 24931] (Ac-[d2Nal][dPhe(4-Cl)][d3Pal]S[X9][dK](Nicotinoyl)L[Lys(iPr)]P[dA]-NH2), the Wheal falls from 196.9 ± 4.1 mm^2 /10 to 140 ± 7.0 mm^2 /10.

Compared with `CC(=O)N[C@H](Cc1ccc2ccccc2c1)C(=O)N[C@H](Cc1ccc(Cl)cc1)C(=O)N[C@H](Cc1cccnc1)C(=O)N[C@@H](CO)C(=O)N[C@@H](Cc1ccc(O)cc1)C(=O)N[C@H](CCCCNC(=O)c1cccnc1)C(=O)N[C@@H](CC(C)C)C(=O)N[C@@H](CCCNC(C)C)C(=O)N1CCC[C@H]1C(=O)N[C@H](C)C(N)=O` [compound 24756] (Ac-[d2Nal][dPhe(4-Cl)][d3Pal]SY[dK](Nicotinoyl)L[Orn(iPr)]P[dA]-NH2), `CC(=O)N[C@H](Cc1ccc2ccccc2c1)C(=O)N[C@H](Cc1ccc(Cl)cc1)C(=O)N[C@H](Cc1cccnc1)C(=O)N[C@@H](CO)C(=O)N[C@@H](Cc1ccc(O)cc1)C(=O)N[C@H](CCCCNC(C)C)C(=O)N[C@@H](CC(C)C)C(=O)N[C@@H](CCCCNC(=O)c1cccnc1)C(=O)N1CCC[C@H]1C(=O)N[C@H](C)C(N)=O` [compound 24824] (Ac-[d2Nal][dPhe(4-Cl)][d3Pal]SY[dLys(iPr)]LK(Nicotinoyl)P[dA]-NH2) is higher in Wheal: 92.2 ± 2.9 mm^2 /10 for the first, 122.8 ± 5.8 mm^2 /10 for the second.
